Common to all, as to type: physicochemical
A short description of series [1]: Preparation of compositions (Example 3): appearance and stability of the solution.
Series [2] in a line: Trans resveratrol solubility in stock with solvents and co-solutes (incremental addition, heat gun). As for the experimental part: The initial approach was to test non polar solvents and their effectiveness with ethanol. This included pure stock as a control, carvone, and combinations of those solvents with ethanol. The following solvents were prepared: Control—3.5 ml of pure stock, 1-1.75 ml of stock+1.75 ml of carvone+0.2 ml of 0.01 mol NaOH, 2-3.5 ml of pure carvone, 3-3 ml of stock+0.5 ml of ethanol, 4-3 ml of carvone+0.5 ml of ethanol.
Solution 1 became biphasic and cloudy. The control and solution 4 have approximately the same solubility of TR. […] Solvent was added until the TR was dissolved which occurred at 60 mg/ml of stock. This original solution was split into 5 test tubes of 1 ml each with about 0.06 g of TR.
The following solutions were made: 1—adding […] of carvone (equimolar with TR, 0.000263 mol of each) 2—adding 0.175 ml of ethanol 3-0.235 ml of carvone and 0.1 ml of ethanol. Solution 1 became cloudy because the carvone is immiscible with the stock. Several attempts to fix this were made using of ethanol and B3 amide as hydrotropes but it had no effect.
Next co-solutes were used along with the TR in stock solution. 0.000263 mol of the following were dissolved along with TR in 3 ml stock: 1-niacin, 2-caffeine, 3-gallic acid, 4-salicylic acid, 5-thiamine, 6-niacinamide, and 7-pantothenic acid. Two additional samples were prepared of 0.01 g biotin (8) and 0.04 g of -pyridoxine HCl (9). Each solution consisted of the stated amount of co-solute and 3 ml of stock. The following amounts of TR (which was added incrementally (30-40 mg) and heated for 3-4 minutes by heat gun) created the following:
To conduct further testing 0.5 ml of ethanol was added to the solutions with niacin, biotin, thiamine, and salicylic acid. The successful B3 amide solution was split into two solutions of (1.625 and 1.375 ml) with 0.25 ml of ethanol being added to the 1.375 ml solution. The results were as follows:
There was also testing with multiple solutes in 3 ml of stock:
Currently piperazine hexahydrate is being tested as it is another hydrotrope. […] It may work better with other co-solutes or ethanol.

The nature of series [3]: Increase in solubility of active compounds in the present compositions. The source says: It is advantageous to take measures to increase the solubility of an active compound or active compounds within a composition that includes components that serve as excipients such that true solubilization of the compound(s) occurs and the activity of the active compounds are retained upon transition to the vapor phase. The present disclosure is based on the result that the solubility of active compounds can be increased by surprising and unexpected amounts.

Series [4] can be described thus: Folate solubility in glycerin/2,3 butane diol stock compositions with co-solutes (incremental addition, heat gun, stirring). Particulars: organic solvent or mixture, thermodynamic from solid; stock/water/ethanol solvent. As for the experimental part:
Folate. Folate and biotin are the two most difficult to dissolve B vitamins. Folate solubility enhancement was provided by addition of beta-cyclodextrin.
The solubility enhancement from mannitol/biotin alone was tested next. […] This is major improvement over most polar solvents (0.0016 g/L of water at 25° C.).
First the mannitol/biotin powder was mixed with 0.004 g of folate. This was added to the test tube followed by the liquid. It was stirred vigorously. Then it was heated with a heat gun until clear and no folate was suspended. […] All the liquid was moved to another test tube and the precipitate remained. Then folate was incrementally added (about 1 mg) and the solution was stirred, followed by heating** until it became clear. It would take at least 3 minutes of heating for it to become clear but as more folate was added, at least 4 minutes of heating were needed. This is how the original solution was formed. Over the course of several days there was no further precipitate or increase in viscosity. ** all heating was done with the yellow heat gun on the lowest setting (240° F.)
While heating and stirring the lid popped off and 0.75 ml of solution spilled out. Even accounting for folate lost in the spill, currently at least 8 mg of folate have been dissolved in 2.75 ml and the solution is completely clear. Heating the solution caused the lid to pop so it must be removed after about 1 minute and 30 seconds of heating prior to any further heating. It is also crucial for the solution to have been flipped upside down, preferably while warm. The solution must not be heated while flipped as this may cause a spill.
The original solution still has less much viscosity but also a slightly lower concentration of folate. It appears that somewhere beyond 8 mg folate/[…] of solution it becomes supersaturated, resulting in a thick gel upon settling and cooling. […] As long as supersaturation followed by settling is avoided, the solution will remain liquid. Another option is to study the effect of precipitation inhibitors or the sonicator to further boost solubility without increasing viscosity.
Testing was also done with only stock, stock+water and stock+ethanol but having both water and ethanol is crucial to the process. […] Despite having separated the liquid from the precipitate which was nearly all biotin/mannitol, the powder still played a role in improving folate solubility. […] The following composition (3 ml stock+0.25 ml water+0.25 ml ethanol+0.009 g of biotin) dissolved 11.2 mg of folate but became extremely viscous.
According to research on drug solubility there is a class of molecules known as hydrotropes (also known as chaotropes, […]). They reduce hydrophobic forces between non-polar solutes in polar solvents. One such molecule is niacinamide (vitamin B3 amide). These hydrotropes are planar and are either very polar or have nonpolar and polar sides like surfactants but shorter. This experiment was repeated with niacinamide as a cosolute and with a combination of B3 amide and Biotin. The biotin and B3 amide were added along with 4 mg of folate (and crushed together) wet into dry to the solution. The remaining folate was added incrementally along with heating and stirring. […] (2.5 ml stock+0.5 ml water+0.5 ml ethanol+0.0221 g of B3 amide) dissolved approximately 11 mg of folate and a small amount of precipitate. (2.5 ml stock+0.5 ml water+0.5 ml ethanol+0.0221 g of B3 amide+0.090 g pure biotin) dissolved approximately 11.4 mg of folate without precipitate. Unfortunately both solutions were extremely viscous after a few days.
Eventually the B3 amide and biotin cosolute solution was prepared using “reverse stock” instead of regular with the goal of lowering viscosity. The reverse stock is a solution of 3:7 mol glycerin and 2,3 butane diol. Initially this made folate precipitate so additional glycerin was added to achieve a 1:1 mol ratio of glycerin to 2,3 butane diol.

Where [5] appears, read: 0.693 g L-arginine and 0.693 g l-theanine in 0.75 ml stock, 2.5 ml water, 0.25 ml flavored glycerin.

Like-named read-outs stand apart in the source and are kept apart here. Peptide text beside a SMILES is read from it. * marks the point of attachment. PhAc = O=C(Cc1ccccc1)*

`N=C(N)NCCC[C@H](N)C(=O)O` [L-arginine]: in series [1] (setting [5]), the appearance of composition result is “clear and flavored solution”.

As to `CC(C)(CO)[C@@H](O)C(=O)NCCC(=O)O` [Pantothenic Acid], the appearance of composition result in series [1] (0.2 g vitamin B5 in 1.5 ml stock, 2.0 ml fruit flavored vodka, 0.1 ml flavored glycerin) was “clear and flavored solution”.

For the compound `Oc1ccc(/C=C/c2cc(O)cc(O)c2)cc1` [TR, Trans-resveratrol], the “amount of TR added” value worked out at 0.0731 g in series [2] (0.000263 mol piperazine.6H2O in 1 ml stock); 0.0131 g in series [2] (3 ml stock + 0.000263 mol caffeine (2)); 0.1784 g in series [2] (3 ml stock + 0.000263 mol gallic acid (3)); 0.1776 g in series [2] (3 ml stock + 0.000263 mol niacin (1)); 0.1738 g in series [2] (3 ml stock + 0.000263 mol niacinamide (6)); 0.0131 g in series [2] (3 ml stock + 0.000263 mol pantothenic acid (7)). Further, the “amount of TR added” value worked out at 0.1784 g in series [2] (3 ml stock + 0.000263 mol salicylic acid (4)), 0.1808 g in series [2] (3 ml stock + 0.000263 mol thiamine (5)), 0.1733 g in series [2] (3 ml stock + 0.01 g biotin (8)) and 0.1859 g in series [2] (3 ml stock + 0.04 g pyridoxine HCl (9)). Moreover, the “appearance of solution after a few days” value in series [2] (0.000263 mol piperazine.6H2O in 1 ml stock, 0.0731 g TR) was “the solution became dark and there was a small amount of precipitate”. Besides, the “amount of TR dissolved” value amounted to 0.2606 g in series [2] (0.0100 g B7+3.5 ml stock+0.5 ml ethanol); 0.2316 g in series [2] (0.0324 g B3+3.5 ml stock+0.5 ml ethanol); 0.2333 g in series [2] (0.0698 g B1+3.5 ml stock+0.5 ml ethanol); 0.025 g in series [2] (3 ml stock, 0.03175 g B3 amide+0.069 g B1+0.006352 g B7, footnote: immediately precipitate); 0.1844 g in series [2] (3 ml stock, 0.0482 g B3 amide+0.03 g B1); 0.025 g in series [2] (3 ml stock, 0.0482 g B3 amide+0.09 g B7, footnote: immediately precipitate). Also, the “TR dissolved per ml” value in series [2] (0.048175 B3 amide+1.375+0.25 ml ethanol) and in series [2] (0.048175 B3 amide+1.625 ml) was 0.125 g TR/ml in each case. Also, the appearance of solution entry was “tiny amount of suspension” in series [2] (3 ml stock + biotin (8), 0.1733 g TR); “immediately precipitated” in series [2] (3 ml stock + caffeine (2), 0.0131 g TR); “clearly visible suspension and precipitate on bottom” in series [2] (3 ml stock + gallic acid (3), 0.1784 g TR); “slight visible suspension of particles” in series [2] (3 ml stock + niacin (1), 0.1776 g TR); “totally clear solution with low viscosity” in series [2] (3 ml stock + niacinamide (6), 0.1738 g TR); “cloudy solution without precipitate” in series [2] (3 ml stock + pantothenic acid (7), 0.0131 g TR). Also, the appearance of solution entry in series [2] (3 ml stock + pyridoxine HCl (9), 0.1859 g TR) is “clearly visible suspension with precipitate”; in series [2] (3 ml stock + salicylic acid (4), 0.1784 g TR), “small amount of suspension and precipitate are visible in solution”; in series [2] (3 ml stock + thiamine (5), 0.1808 g TR) it was “small amount of suspension and precipitate are visible in solution”. The solubility in series [2] (glycerin/2,3 butane diol stock (70:30 mol), organic solvent or mixture, thermodynamic from solid, pure stock (70:30 mole glycerin:2,3 butane diol), read-out: solubility in stock) amounted to 60 mg/mL; in series [2] (organic solvent or mixture, thermodynamic from solid, flavored glycerin (with 2,3 butane diol added) instead of regular stock, read-out: solubility) it was 45 mg/mL; in series [2] (solution 2: 1 ml TR stock solution + 0.175 ml ethanol) it was 60 mg/mL. Also, the “appearance and stability of composition” value in series [1] (0.2 g trans resveratrol, 0.12 g nicotinamide, 0.08 g ethyl vanillin, 0.06 g cinnamic acid in 3.5 ml stock) is “clear and flavored solution that became unstable after two weeks and precipitated”.

As to `C=C1CC[C@H](O)C/C1=C/C=C1\CCC[C@]2(C)[C@@H]([C@H](C)CCCC(C)C)CC[C@@H]12` [Vitamin D3], the increase in solubility in series [3] (in the present compositions, D3 with ß-propoxy cyclodextrin) is recorded as 22,000%. In series [1] (5 mg Vitamin D3, 15 mg βcyclodextrin, 15 mg cinnamic acid, 15 mg ethyl vanillin in 2.5 ml stock+1.0 ml water, heated at 175° C.), the appearance of composition entry is on record as “clear solution with flavor”.

In the case of `O=C(O)CCCC[C@@H]1SC[C@@H]2NC(=O)N[C@@H]21` [biotin], the solubility in series [4] is around 3 mg/mL. Moreover, the increase in solubility entry in series [3] was “comparable increases”.

With `CCNC(=O)CC[C@H](N)C(=O)O` [l-theanine], the appearance of composition entry in series [1] (setting [5]) is “clear and flavored solution”.

Turning to `CCOC(=O)CNC(=O)[C@@H]1CCCN1C(=O)Cc1ccccc1` [noopept] (PhAc-Pro-Gly-OEt), the appearance of composition entry in series [1] (0.335 g noopept, 58 mg cinnamic acid in 2.0 ml stock, 2.0 ml ethanol, 0.1 ml flavored glycerin) was “clear and flavored solution”.

Take `Cc1cc2nc3c(=O)[nH]c(=O)nc-3n(C[C@H](O)[C@H](O)[C@H](O)CO)c2cc1C` [riboflavin]: the appearance of composition entry in series [1] (18 mg riboflavin, 9.26 mg l-arginine in 1.5 ml stock and 2.0 ml of 0.1 mol Na2CO3) is “clear solution”.

cyanocobalamin [B12]: the increase in solubility in series [3] is 600%. Further, the “concentration of final translucent solution” value in series [1] (water, 70% glycerin/30% 2,3 butane diol (v/v), 0.01M NaOH, 95% EtOH, room temperature) is listed as around 0.21 M.
